Experimental data: ChEMBL document CHEMBL1201862, “PubChem BioAssay data set” (2004)
Active and inactive are the calls of the source.

Experiments:
[1] = Artemis endonuclease inhibitor potency, dose response, biochemical, fluorescence intensity (AID 720701); format: functional;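 also: Artemis endonuclease enzyme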
[2] = target: Mitogen-activated protein kinase 10 (Homo sapiens, UniProt P53779); experiment: Dose response biochemical screening assay for inhibitors of c-Jun N-Terminal Kinase 3 (JNK3). [Related pubchem assays: 746 ]
Mitogen-activated protein kinase 10, sequence (P53779 whole entry): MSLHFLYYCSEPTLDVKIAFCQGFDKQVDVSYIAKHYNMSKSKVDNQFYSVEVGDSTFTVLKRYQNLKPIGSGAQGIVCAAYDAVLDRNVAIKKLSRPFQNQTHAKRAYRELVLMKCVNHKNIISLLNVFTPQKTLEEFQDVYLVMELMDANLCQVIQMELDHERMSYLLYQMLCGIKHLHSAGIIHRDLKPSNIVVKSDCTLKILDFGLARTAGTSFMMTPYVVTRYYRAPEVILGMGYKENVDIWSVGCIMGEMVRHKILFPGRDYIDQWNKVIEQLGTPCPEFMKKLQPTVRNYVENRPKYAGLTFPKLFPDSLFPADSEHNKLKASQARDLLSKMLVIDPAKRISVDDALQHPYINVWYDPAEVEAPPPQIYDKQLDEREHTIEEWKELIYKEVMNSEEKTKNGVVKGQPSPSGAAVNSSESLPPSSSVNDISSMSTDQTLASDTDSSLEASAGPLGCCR

[3] = target: T1, Luciferin 4-monooxygenase (Photuris pensylvanica, UniProt Q27757); experiment: firefly luciferase enzyme inhibitors, dose response, counter-screen for HSF-1 reporter inhibitor project, biochemical, Cell Titer Glo, luminescence, cherry-picks (AID 588847)
T1 sequence (Q27757 whole entry): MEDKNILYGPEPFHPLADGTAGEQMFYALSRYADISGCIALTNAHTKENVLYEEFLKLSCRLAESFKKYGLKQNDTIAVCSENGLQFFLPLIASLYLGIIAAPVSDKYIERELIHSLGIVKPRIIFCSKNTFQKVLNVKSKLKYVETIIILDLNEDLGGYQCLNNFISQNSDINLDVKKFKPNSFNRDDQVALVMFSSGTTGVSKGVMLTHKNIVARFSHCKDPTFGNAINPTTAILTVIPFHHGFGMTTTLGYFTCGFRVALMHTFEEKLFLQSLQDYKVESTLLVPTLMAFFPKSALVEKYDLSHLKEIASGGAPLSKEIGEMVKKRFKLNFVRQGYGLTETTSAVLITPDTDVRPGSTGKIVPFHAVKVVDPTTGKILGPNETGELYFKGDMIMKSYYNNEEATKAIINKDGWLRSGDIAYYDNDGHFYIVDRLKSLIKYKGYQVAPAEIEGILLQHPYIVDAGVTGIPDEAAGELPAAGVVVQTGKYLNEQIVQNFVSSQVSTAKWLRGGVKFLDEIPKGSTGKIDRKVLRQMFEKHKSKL

[4] = target: Heat shock protein HSP 90-alpha (Homo sapiens, UniProt P07900); experiment: Luminescence-based dose response biochemical high throughput screening assay for inhibitors of the Heat Shock Protein 90 (HSP90). [Related pubchem assays: 1831 (Summary AID.), 1846 (Confirmation screen.), 1789 (Primary screen.)]
[5] = target: T2, Induced myeloid leukemia cell differentiation protein Mcl-1 (Homo sapiens, UniProt Q07820); experiment: MCL1-BIM BH3 interaction inhibitors, dose response, biochemical, fluorescence polarization, BIM-BH3 peptide, 1536-well (AID 2217)
T2 sequence (Q07820 whole entry): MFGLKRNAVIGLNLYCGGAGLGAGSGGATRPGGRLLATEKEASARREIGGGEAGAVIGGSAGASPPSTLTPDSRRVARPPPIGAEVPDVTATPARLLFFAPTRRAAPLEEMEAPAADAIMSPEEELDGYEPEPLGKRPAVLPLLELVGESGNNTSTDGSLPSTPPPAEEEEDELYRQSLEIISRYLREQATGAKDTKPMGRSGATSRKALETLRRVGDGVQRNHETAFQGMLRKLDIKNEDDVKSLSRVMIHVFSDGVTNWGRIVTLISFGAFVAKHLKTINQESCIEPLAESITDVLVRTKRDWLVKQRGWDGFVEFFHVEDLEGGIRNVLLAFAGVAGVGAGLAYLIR

[6] = target: T2, Induced myeloid leukemia cell differentiation protein Mcl-1; format: functional
Bcl-2-like protein 1 = Bcl-2-like protein 1 (Homo sapiens, UniProt Q07817); experiment: BCL-XL inhibitors, dose response, selectivity assay for MCL1 inhibitor project, biochemical, fluorescence polarization, 1536-well (AID 2218)
Bcl-2-like protein 1, sequence (Q07817 whole entry): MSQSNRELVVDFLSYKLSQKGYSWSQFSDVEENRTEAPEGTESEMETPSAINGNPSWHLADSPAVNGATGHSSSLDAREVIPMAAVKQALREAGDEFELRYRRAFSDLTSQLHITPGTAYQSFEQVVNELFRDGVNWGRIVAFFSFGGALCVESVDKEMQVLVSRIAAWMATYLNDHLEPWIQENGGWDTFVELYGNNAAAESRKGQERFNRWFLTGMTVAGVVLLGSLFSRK

NADPH oxidase 1 = NADPH oxidase 1 (Homo sapiens, UniProt Q9Y5S8); experiment: Late-stage luminescence-based cell-based dose response assay to identify inhibitors of NADPH oxidase 1 (NOX1): Synthesized analogs 2.; format: functional
NADPH oxidase 1, sequence (Q9Y5S8 whole entry): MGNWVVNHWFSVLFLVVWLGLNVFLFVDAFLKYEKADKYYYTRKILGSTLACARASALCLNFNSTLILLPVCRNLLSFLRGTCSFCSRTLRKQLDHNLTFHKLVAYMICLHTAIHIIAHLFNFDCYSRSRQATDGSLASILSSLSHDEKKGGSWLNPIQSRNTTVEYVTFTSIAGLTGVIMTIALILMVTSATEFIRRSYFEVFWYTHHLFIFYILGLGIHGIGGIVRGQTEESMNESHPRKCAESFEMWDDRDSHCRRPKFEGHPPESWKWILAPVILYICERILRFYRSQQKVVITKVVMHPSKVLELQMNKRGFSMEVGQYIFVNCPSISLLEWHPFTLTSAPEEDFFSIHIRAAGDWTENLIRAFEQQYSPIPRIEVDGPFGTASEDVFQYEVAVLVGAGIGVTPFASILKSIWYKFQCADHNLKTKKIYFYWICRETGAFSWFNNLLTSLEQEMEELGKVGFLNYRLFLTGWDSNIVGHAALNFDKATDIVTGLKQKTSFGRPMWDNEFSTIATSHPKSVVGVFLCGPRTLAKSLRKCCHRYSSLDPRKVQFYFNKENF

[7] = target: Aryl hydrocarbon receptor (Homo sapiens, UniProt P35869); experiment: Luminescence-based cell-based high throughput dose response assay for activators of the Aryl Hydrocarbon Receptor (AHR). [Related pubchem assays: 2796 (Primary screen (AHR activators in singlicate)), 2845 (Confirmation screen (AHR activators in triplicate)), 434939 (Counterscreen (PXR activators in triplicate)), 2804 (Summary (AHR activators))]; format: ADME
Aryl hydrocarbon receptor, sequence (P35869 whole entry): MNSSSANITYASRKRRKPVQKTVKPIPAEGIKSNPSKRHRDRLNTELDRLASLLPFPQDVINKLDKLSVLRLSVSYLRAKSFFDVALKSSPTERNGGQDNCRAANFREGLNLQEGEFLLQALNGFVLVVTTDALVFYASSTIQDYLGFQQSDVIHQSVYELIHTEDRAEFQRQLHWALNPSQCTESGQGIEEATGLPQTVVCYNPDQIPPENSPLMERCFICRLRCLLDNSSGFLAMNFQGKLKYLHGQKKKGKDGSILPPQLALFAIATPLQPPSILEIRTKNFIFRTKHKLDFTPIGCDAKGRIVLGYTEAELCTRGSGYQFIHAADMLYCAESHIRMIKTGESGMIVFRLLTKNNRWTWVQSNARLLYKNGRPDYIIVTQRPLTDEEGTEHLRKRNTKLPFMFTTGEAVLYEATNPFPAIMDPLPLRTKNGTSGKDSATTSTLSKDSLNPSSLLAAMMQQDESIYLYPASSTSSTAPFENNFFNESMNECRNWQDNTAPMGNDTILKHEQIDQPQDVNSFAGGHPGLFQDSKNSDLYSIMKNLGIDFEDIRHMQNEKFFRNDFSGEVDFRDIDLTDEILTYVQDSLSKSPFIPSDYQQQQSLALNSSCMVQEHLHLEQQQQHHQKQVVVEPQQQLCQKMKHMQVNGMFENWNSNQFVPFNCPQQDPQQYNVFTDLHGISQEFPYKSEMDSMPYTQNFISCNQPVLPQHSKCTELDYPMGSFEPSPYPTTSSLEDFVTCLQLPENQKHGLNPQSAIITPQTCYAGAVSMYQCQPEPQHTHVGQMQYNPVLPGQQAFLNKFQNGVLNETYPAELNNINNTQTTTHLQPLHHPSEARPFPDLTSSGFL

[8] = target: Melanin-concentrating hormone receptor 1 (Homo sapiens, UniProt Q99705); experiment: Fluorescence-based counterscreen for antagonists of the G-protein coupled receptor 7 (GPR7): cell-based high throughput dose response assay to identify antagonists of the melanin-concentrating hormone receptor 1 (MCHR1).; format: functional
Melanin-concentrating hormone receptor 1, sequence (Q99705 whole entry): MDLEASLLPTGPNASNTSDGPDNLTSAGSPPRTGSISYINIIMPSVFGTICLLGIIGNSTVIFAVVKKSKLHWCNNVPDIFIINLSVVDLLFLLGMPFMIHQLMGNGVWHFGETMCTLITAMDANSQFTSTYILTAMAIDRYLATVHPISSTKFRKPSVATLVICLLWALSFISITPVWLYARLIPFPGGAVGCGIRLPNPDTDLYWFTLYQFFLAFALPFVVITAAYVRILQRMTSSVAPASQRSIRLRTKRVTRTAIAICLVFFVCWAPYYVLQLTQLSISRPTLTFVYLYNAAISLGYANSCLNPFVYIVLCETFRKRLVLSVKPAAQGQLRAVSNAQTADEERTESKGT

[9] = target: Neuropeptides B/W receptor type 1 (Homo sapiens, UniProt P48145); experiment: Fluorescence-based dose response cell-based high throughput screening assay to identify antagonists of the G-protein coupled receptor 7 (GPR7). [Related pubchem assays: 1952 (Screening assay (GPR7 antagonists).), 1880 (Summary AID.)]; format: functional
Neuropeptides B/W receptor type 1, sequence (P48145 whole entry): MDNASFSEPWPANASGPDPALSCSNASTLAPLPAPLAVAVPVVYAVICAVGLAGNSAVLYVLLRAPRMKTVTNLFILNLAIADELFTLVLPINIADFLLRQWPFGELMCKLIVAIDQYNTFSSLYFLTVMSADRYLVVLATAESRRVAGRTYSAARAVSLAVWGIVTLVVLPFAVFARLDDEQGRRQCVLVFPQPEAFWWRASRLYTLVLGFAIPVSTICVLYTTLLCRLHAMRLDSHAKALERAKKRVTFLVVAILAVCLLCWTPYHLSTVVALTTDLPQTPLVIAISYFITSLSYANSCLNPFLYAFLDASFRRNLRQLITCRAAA

[10] = Vero cell cytotoxicity, dose response, cytotoxicity control for Vif-APOBEC3G degradation inhibitor project, Vero cells (AID 1117358); format: functional; conditions: Human immunodeficiency virus 1, Vero

With Cc1c(-c2nc(N)nc(Nc3ccccc3)n2)oc2ccccc12 the IC50 [1] was 7.66 µM (active) and the IC50 [2] was > 93.1 µM (not active).
For Cc1c(-c2nc(-c3ccc(C(C)(C)C)cc3)no2)n(C)oc1=O, the AC50 [3] was > 52 µM (inactive) and the IC50 [4] was > 0.003 µM (active).
In the case of O=c1c2c3c(sc2[nH]c(=S)n1Cc1ccco1)CCC3, the IC50 [5] was 77.8 µM (not active), the IC50 [6] was 2.1 µM (active) and the IC50 (Bcl-2-like protein 1) was > 109 µM (not active).
In the case of CN1c2ccccc2Sc2cc(NC(=O)c3ccc(N=[N+]=[N-])cc3)ccc21, the IC50 (NADPH oxidase 1) was 17.7 µM (active).
With Nc1cccc(Nc2ncnc3ccccc23)c1 the EC50 [7] was 3.58 µM (active).
In the case of O=C(NC1CCCC1)C(c1ccccc1)N(Cc1ccco1)C(=O)Cc1cccs1 (configuration not stated), the IC50 [8] was 4.76 µM (active) and the IC50 [9] was > 43.8 µM (not active).
For O=C(c1ccco1)c1cn(Cc2ccccc2)c2ccccc12, the CC50 [10] was > 40 µM (active).
